PubChem BioAssay (NCI)
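GI50 = concentration required for 50% inhibition of growth. TGI: total growth inhibition.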

Tests used:
Experiment in all cases: NCI-60 cell line screen, 384-well format
786-0 renal = system: 786-0 renal
A498 renal = system: A498 renal
A549 NSCLC = system: A549 NSCLC
ACHN renal = system: ACHN renal
BT-549 breast = system: BT-549 breast
CAKI-1 renal = system: CAKI-1 renal
CCRF-CEM leukemia = system: CCRF-CEM leukemia
COLO 205 colon = system: COLO 205 colon
DU-145 prostate = system: DU-145 prostate
EKVX NSCLC = system: EKVX NSCLC
HCC-2998 colon = system: HCC-2998 colon
HCT-116 colon = system: HCT-116 colon
HCT-15 colon = system: HCT-15 colon
HL-60(TB) leukemia = system: HL-60(TB) leukemia
HOP-62 NSCLC = system: HOP-62 NSCLC
HOP-92 NSCLC = system: HOP-92 NSCLC
HS 578T breast = system: HS 578T breast
HT29 colon = system: HT29 colon
IGROV1 ovarian = system: IGROV1 ovarian
K-562 leukemia = system: K-562 leukemia
KM12 colon = system: KM12 colon
LOX IMVI melanoma = system: LOX IMVI melanoma
M14 melanoma = system: M14 melanoma
MALME-3M melanoma = system: MALME-3M melanoma
MCF7 breast = system: MCF7 breast
MDA-MB-231 breast = system: MDA-MB-231 breast
MDA-MB-435 melanoma = system: MDA-MB-435 melanoma
MDA-MB-468 breast = system: MDA-MB-468 breast
MOLT-4 leukemia = system: MOLT-4 leukemia
NCI-H226 lung = system: NCI-H226 lung
NCI-H23 lung = system: NCI-H23 lung
NCI-H322M lung = system: NCI-H322M lung
NCI-H460 NSCLC = system: NCI-H460 NSCLC
NCI-H522 lung = system: NCI-H522 lung
NCI/ADR-RES ovarian = system: NCI/ADR-RES ovarian
OVCAR-3 ovarian = system: OVCAR-3 ovarian
OVCAR-4 ovarian = system: OVCAR-4 ovarian
OVCAR-5 ovarian = system: OVCAR-5 ovarian
OVCAR-8 ovarian = system: OVCAR-8 ovarian
PC-3 prostate = system: PC-3 prostate
RPMI-8226 leukemia = system: RPMI-8226 leukemia
RXF 393 renal = system: RXF 393 renal
SF-268 CNS = system: SF-268 CNS
SF-295 CNS = system: SF-295 CNS
SF-539 CNS = system: SF-539 CNS
SK-MEL-28 melanoma = system: SK-MEL-28 melanoma
SK-MEL-5 melanoma = system: SK-MEL-5 melanoma
SK-OV-3 ovarian = system: SK-OV-3 ovarian
SN12C renal = system: SN12C renal
SNB-19 CNS = system: SNB-19 CNS
SNB-75 CNS = system: SNB-75 CNS
SW-620 colon = system: SW-620 colon
T-47D breast = system: T-47D breast
TK-10 renal = system: TK-10 renal
U251 glioblastoma = system: U251 glioblastoma
UACC-257 melanoma = system: UACC-257 melanoma
UACC-62 melanoma = system: UACC-62 melanoma
UO-31 renal = system: UO-31 renal

Nc1nc2cc(CC[C@H]3C[C@@H](n4ccc5c(N)ncnc54)[C@H](O)[C@@H]3O)ccc2cc1Br
GI50 ([…]-0 renal): 11.5 µM | TGI (786-0 renal): 23.7 µM | GI50 (A498 renal): 2.11 µM | TGI (A498 renal): 11.8 µM | GI50 (A549 NSCLC): 0.644 µM | TGI (A549 NSCLC): 15.8 µM | GI50 (ACHN renal): 13.4 µM | TGI (ACHN renal): 26.5 µM | GI50 (BT-549 breast): 4.06 µM | TGI (BT-549 breast): 18.3 µM | GI50 (CAKI-1 renal): 11.5 µM | TGI (CAKI-1 renal): 23.9 µM | GI50 (CCRF-CEM leukemia): 0.3 µM | TGI (CCRF-CEM leukemia): 10.4 µM | GI50 (COLO 205 colon): 4.18 µM | TGI (COLO 205 colon): 19.5 µM | GI50 (DU-145 prostate): 13.4 µM | TGI (DU-145 prostate): 26.5 µM | GI50 (EKVX NSCLC): 1 µM | TGI (EKVX NSCLC): 16.4 µM | GI50 (HCC-2998 colon): 10.5 µM | TGI (HCC-2998 colon): 22.5 µM | GI50 (HCT-116 colon): 1.66 µM | TGI (HCT-116 colon): 15.5 µM | GI50 (HCT-15 colon): 9.52 µM | TGI (HCT-15 colon): 21.8 µM | GI50 (HL-60(TB) leukemia): 13.8 µM | TGI (HL-60(TB) leukemia): 27 µM | GI50 (HOP-62 NSCLC): 0.37 µM | TGI (HOP-62 NSCLC): 12.1 µM | GI50 (HOP-92 NSCLC): 12.4 µM | TGI (HOP-92 NSCLC): 24.9 µM | GI50 (HS 578T breast): 11.7 µM | TGI (HS 578T breast): 24.1 µM | GI50 (HT29 colon): 1.85 µM | TGI (HT29 colon): 10.4 µM | GI50 (IGROV1 ovarian): 6.55 µM | TGI (IGROV1 ovarian): 20.8 µM | GI50 (K-562 leukemia): 0.348 µM | TGI (K-562 leukemia): 15.5 µM | GI50 (KM12 colon): 3.42 µM | TGI (KM12 colon): 20.7 µM | GI50 (LOX IMVI melanoma): 0.579 µM | TGI (LOX IMVI melanoma): 12.2 µM | GI50 (M14 melanoma): 10.6 µM | TGI (M14 melanoma): 22.5 µM | GI50 (MALME-3M melanoma): 10.2 µM | TGI (MALME-3M melanoma): 21.9 µM | GI50 (MCF7 breast): 0.983 µM | TGI (MCF7 breast): 15.8 µM | GI50 (MDA-MB-231 breast): 3.2 µM | TGI (MDA-MB-231 breast): 20.5 µM | GI50 (MDA-MB-435 melanoma): 12 µM | TGI (MDA-MB-435 melanoma): 24.5 µM | GI50 (MDA-MB-468 breast): 0.0253 µM | TGI (MDA-MB-468 breast): 0.433 µM | GI50 (MOLT-4 leukemia): < 0.01 µM | GI50 (NCI-H226 lung): 1.62 µM | TGI (NCI-H226 lung): 15.5 µM | GI50 (NCI-H23 lung): 0.392 µM | TGI (NCI-H23 lung): 18.8 µM | GI50 (NCI-H322M lung): 0.35 µM | TGI (NCI-H322M lung): 5.88 µM | GI50 (NCI-H460 NSCLC): < 0.01 µM | TGI (NCI-H460 NSCLC): 1.08 µM | GI50 (NCI-H522 lung): 11 µM | TGI (NCI-H522 lung): 23 µM | GI50 (NCI/ADR-RES ovarian): 5.73 µM | TGI (NCI/ADR-RES ovarian): 18.6 µM | GI50 (OVCAR-3 ovarian): 2.88 µM | TGI (OVCAR-3 ovarian): 13.8 µM | GI50 (OVCAR-4 ovarian): 0.4 µM | TGI (OVCAR-4 ovarian): 19 µM | GI50 (OVCAR-5 ovarian): 11.4 µM | TGI (OVCAR-5 ovarian): 23.8 µM | GI50 (OVCAR-8 ovarian): 1.46 µM | TGI (OVCAR-8 ovarian): 14.3 µM | GI50 (PC-3 prostate): 11.4 µM | TGI (PC-3 prostate): 23.7 µM | GI50 (RPMI-8226 leukemia): 2.14 µM | TGI (RPMI-8226 leukemia): 15.4 µM | GI50 (RXF 393 renal): 0.246 µM | TGI (RXF 393 renal): 16.3 µM | GI50 (SF-268 CNS): < 0.01 µM | TGI (SF-268 CNS): 1.44 µM | GI50 (SF-295 CNS): 12.4 µM | TGI (SF-295 CNS): 25.2 µM | GI50 (SF-539 CNS): 10.6 µM | TGI (SF-539 CNS): 22.5 µM | GI50 (SK-MEL-28 melanoma): 18.2 µM | TGI (SK-MEL-28 melanoma): 32.2 µM | GI50 (SK-MEL-5 melanoma): 0.309 µM | TGI (SK-MEL-5 melanoma): 2.33 µM | GI50 (SK-OV-3 ovarian): 12 µM | TGI (SK-OV-3 ovarian): 24.5 µM | GI50 (SN12C renal): 11.5 µM | TGI (SN12C renal): 23.8 µM | GI50 (SNB-19 CNS): 11.5 µM | TGI (SNB-19 CNS): 23.9 µM | GI50 (SNB-75 CNS): 1.95 µM | TGI (SNB-75 CNS): 16.5 µM | GI50 (SW-620 colon): 11.8 µM | TGI (SW-620 colon): 24.1 µM | GI50 (T-47D breast): < 0.01 µM | TGI (T-47D breast): 2.59 µM | GI50 (TK-10 renal): 12.6 µM | TGI (TK-10 renal): 25.4 µM | GI50 (U251 glioblastoma): 5.85 µM | TGI (U251 glioblastoma): 20.3 µM | GI50 (UACC-257 melanoma): 1.42 µM | TGI (UACC-257 melanoma): 11.5 µM | GI50 (UACC-62 melanoma): 11.5 µM | TGI (UACC-62 melanoma): 23.7 µM | GI50 (UO-31 renal): 11.9 µM | TGI (UO-31 renal): 24.4 µM
